IC50 data for three compounds are collected here from US7211576B2, “Diaminothiazoles” (Hoffmann-La Roche Inc., priority 2004, dated 2007).

Experiment [1] concerns the target human cyclin D1-CDK4 (Homo sapiens, UniProt P11802). Kind of experiment: FlashPlate kinase assay, cyclin D1-CDK4. It counts as biochemical. The settings on record: Rb protein substrate, 1 μM ATP, 33P-ATP, 30 minutes room temperature; read-out: CDK4 IC50.
Experiment [2] concerns the target human cyclin E-CDK2 (Homo sapiens, UniProt P24941). Kind of experiment: FlashPlate kinase assay, cyclin E-CDK2. Format: biochemical. The settings on record: Rb protein substrate, 1 μM ATP, 33P-ATP, 30 minutes room temperature.
The target of experiment [3] is human cyclin B-CDK1 (Homo sapiens, UniProt P06493). In words: FlashPlate kinase assay, cyclin B-CDK1. To be noted: Rb protein substrate, 1 μM ATP, 33P-ATP, 30 minutes room temperature. Format: biochemical.
In experiment [4] the test system is HCT116, a colorectal carcinoma cell line. Kind of experiment: Tetrazolium dye (MTT) proliferation assay. Format: cell-based. The settings on record: Homo sapiens, HCT-116; HCT116 cells, inhibition of cell proliferation. The procedure, abridged: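 Cells in McCoy's 5A with 10% FCS, seeded for log growth, dosed next day in duplicate (0.3% DMSO final) and incubated to time points set by growth curves at 37° C. MTT at 1 mg/ml for 2.5–3 h, formazan in ethanol, A570 minus 650 nm reference. IC50 by linear regression of log concentration versus % inhibition.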

pIC50: −log10 of the molar value.

Chain of human cyclin B-CDK1 (P06493 whole entry): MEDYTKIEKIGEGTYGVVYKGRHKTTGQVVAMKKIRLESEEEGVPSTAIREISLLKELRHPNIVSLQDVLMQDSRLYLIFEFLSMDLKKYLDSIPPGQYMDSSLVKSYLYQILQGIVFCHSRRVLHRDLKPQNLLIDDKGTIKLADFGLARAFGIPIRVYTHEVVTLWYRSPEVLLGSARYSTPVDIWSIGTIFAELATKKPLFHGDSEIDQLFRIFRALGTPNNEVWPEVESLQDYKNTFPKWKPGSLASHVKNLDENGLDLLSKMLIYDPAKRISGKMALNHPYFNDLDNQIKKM
Chain of human cyclin B-CDK1 (P14635 whole entry partner): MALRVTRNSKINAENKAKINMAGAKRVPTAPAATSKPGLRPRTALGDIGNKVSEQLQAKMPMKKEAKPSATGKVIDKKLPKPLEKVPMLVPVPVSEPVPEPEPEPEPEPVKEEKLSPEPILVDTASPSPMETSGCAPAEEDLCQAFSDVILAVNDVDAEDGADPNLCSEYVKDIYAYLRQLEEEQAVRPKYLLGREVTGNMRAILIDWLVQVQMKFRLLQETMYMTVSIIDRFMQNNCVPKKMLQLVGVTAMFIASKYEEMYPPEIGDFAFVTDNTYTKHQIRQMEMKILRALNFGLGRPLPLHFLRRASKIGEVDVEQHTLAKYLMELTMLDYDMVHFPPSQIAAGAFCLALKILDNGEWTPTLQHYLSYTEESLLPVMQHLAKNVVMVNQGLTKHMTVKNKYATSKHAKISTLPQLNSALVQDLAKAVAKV
Chain of human cyclin D1-CDK4 (P11802 whole entry): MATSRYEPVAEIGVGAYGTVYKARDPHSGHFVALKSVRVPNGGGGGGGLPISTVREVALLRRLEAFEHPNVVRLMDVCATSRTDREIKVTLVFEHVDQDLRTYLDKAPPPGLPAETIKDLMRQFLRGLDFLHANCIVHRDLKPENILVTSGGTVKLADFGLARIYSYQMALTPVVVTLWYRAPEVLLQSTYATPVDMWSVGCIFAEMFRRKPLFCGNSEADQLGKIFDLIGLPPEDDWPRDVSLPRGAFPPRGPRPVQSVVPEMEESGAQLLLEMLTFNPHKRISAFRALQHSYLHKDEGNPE
Chain of human cyclin D1-CDK4 (P24385 whole entry partner): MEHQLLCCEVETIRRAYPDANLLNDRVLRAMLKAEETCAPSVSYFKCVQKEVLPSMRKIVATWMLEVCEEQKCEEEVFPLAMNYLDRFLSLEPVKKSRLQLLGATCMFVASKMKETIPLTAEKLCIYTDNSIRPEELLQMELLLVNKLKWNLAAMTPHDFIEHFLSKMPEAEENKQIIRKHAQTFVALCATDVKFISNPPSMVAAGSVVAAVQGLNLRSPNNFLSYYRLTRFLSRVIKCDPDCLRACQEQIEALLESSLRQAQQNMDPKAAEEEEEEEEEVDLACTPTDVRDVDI

For `CN(C)C1CCN(c2ccc(Nc3nc(N)c(C(=O)c4cccc(C5CC5)c4)s3)cc2)CC1` [Example 120, {4-Amino-2-[4-(4-dimethylamino-piperidin-1-yl)-phenylamino]-thiazol-5-yl}-(3-cyclopropyl-phenyl)-methanone], the pIC50 was 7.64 in experiment [1], 5.59 in experiment [2], 5.73 in experiment [3] and 5.41 in experiment [4].

With `N#Cc1cccc(C(=O)c2sc(Nc3ccc(N4CCC(N5CCCC(O)C5)CC4)cc3)nc2N)c1` (stereo not drawn) [Example 80, 3-{4-Amino-2-[4-(3-hydroxy-[1,4′]bipiperidinyl-1′-yl)-phenylamino]-thiazole-5-carbonyl}-benzonitrile], the pIC50 in experiment [1] was 7.77; in experiment [2] it was 5.59; in experiment [3] it was 5.86; in experiment [4] it was 5.46.

`CN(C)C1CCN(c2ccc(Nc3nc(N)c(C(=O)c4ccc5c(c4)OCO5)s3)cc2)CC1` [Example 43, {4-Amino-2-[4-(4-dimethylamino-piperidin-1-yl)-phenylamino]-thiazol-5-yl}-benzo[1,3]dioxol-5-yl-methanone]: the pIC50 in experiment [1] is 8.15; in experiment [2], 5.46; in experiment [3], 6.30; in experiment [4], 5.79.

For orientation: pIC50 means the IC50 on a negative log10 scale, so that one unit is a factor of ten.
